The results in this text go back to ChEMBL document CHEMBL1124661, “Synthesis of 8-substituted derivatives of the 2-deoxy analogue of 3-deoxy-beta-D-manno-2-octulopyranosonic acid (2-deoxy-beta-KDO) as inhibitors of 3-deoxy-D-manno-octulosonate cytidylyltransferase” (J Med Chem, 1989).

One may read the IC50 as the midpoint of a concentration-inhibition curve. High values mean lower potency, low ones higher potency.

SMILES strings stand for the structures.

Test [1] in a line: Activity against CMP-KDO synthetase (CKS) from Escherichia coli D21,the compound gave rise to a strongly interfering absorption in the thiobarbituric acid assay.
Test [2] is described as follows: Activity against CMP-KDO synthetase-KDO-lipid A transferase (CKS-KLT) assay from Escherichia coli D21.
The nature of test [3]: Activity against CMP-KDO synthetase (CKS) from Escherichia coli D21.
Test [4] can be described thus: Activity against CMP-KDO synthetase (CKS) from Escherichia coli D21, the compound gave rise to a strongly interfering absorption in the thiobarbituric acid assay.

Turning to `NC[C@@H](O)[C@H]1O[C@H](C(=O)O)C[C@@H](O)[C@H]1O`, the figures for the IC50 result in test [1] and in test [2] were “Strongly interfering absorption” and 7.4 µM, respectively.
For `O=C(O)[C@@H]1C[C@@H](O)[C@@H](O)[C@@H]([C@H](O)CO)O1`, the IC50 was determined as 18 µM in test [3] and 10 µM in test [2].
Taken in the same sequence, the figures for `O=C(O)[C@@H]1C[C@@H](O)[C@@H](O)[C@@H]([C@H](O)CF)O1` were 24 µM and 4.8 µM.
Consider `N.[N-]=[N+]=NC[C@@H](O)[C@H]1O[C@H](C(=O)O)C[C@@H](O)[C@H]1O`, for which the IC50 result in test [4] is “Strongly interfering absorption”; in test [2], 80 µM.
In the case of `N.O=C(O)[C@@H]1C[C@@H](O)[C@@H](O)[C@@H]([C@H](O)CS)O1`, the IC50 result in test [1] was “Strongly interfering absorption”; in test [2] it was 17 µM.
As for `C[C@@H](O)[C@H]1O[C@H](C(=O)O)C[C@@H](O)[C@H]1O`, the IC50 is 22 µM in test [3] and 6.8 µM in test [2].
